Test results reported in patent US20050261162A1, “Pharmaceutical composition for preventing and treating cancer and treating an inflammation” (priority 2001, published 2005).

Assays:
iNOS = target: T1, iNOS (Mus musculus, UniProt P29477); test: Inhibition of LPS-induced iNOS activity (nitric oxide production) in RAW264.7 macrophage cells; type: cell-based; details: LPS 1 μg/ml, 20 hr
T1 construct: endogenous in cells; host or cells: RAW264.7 macrophage cells, LPS-stimulated
T1 sequence (P29477 1-1144): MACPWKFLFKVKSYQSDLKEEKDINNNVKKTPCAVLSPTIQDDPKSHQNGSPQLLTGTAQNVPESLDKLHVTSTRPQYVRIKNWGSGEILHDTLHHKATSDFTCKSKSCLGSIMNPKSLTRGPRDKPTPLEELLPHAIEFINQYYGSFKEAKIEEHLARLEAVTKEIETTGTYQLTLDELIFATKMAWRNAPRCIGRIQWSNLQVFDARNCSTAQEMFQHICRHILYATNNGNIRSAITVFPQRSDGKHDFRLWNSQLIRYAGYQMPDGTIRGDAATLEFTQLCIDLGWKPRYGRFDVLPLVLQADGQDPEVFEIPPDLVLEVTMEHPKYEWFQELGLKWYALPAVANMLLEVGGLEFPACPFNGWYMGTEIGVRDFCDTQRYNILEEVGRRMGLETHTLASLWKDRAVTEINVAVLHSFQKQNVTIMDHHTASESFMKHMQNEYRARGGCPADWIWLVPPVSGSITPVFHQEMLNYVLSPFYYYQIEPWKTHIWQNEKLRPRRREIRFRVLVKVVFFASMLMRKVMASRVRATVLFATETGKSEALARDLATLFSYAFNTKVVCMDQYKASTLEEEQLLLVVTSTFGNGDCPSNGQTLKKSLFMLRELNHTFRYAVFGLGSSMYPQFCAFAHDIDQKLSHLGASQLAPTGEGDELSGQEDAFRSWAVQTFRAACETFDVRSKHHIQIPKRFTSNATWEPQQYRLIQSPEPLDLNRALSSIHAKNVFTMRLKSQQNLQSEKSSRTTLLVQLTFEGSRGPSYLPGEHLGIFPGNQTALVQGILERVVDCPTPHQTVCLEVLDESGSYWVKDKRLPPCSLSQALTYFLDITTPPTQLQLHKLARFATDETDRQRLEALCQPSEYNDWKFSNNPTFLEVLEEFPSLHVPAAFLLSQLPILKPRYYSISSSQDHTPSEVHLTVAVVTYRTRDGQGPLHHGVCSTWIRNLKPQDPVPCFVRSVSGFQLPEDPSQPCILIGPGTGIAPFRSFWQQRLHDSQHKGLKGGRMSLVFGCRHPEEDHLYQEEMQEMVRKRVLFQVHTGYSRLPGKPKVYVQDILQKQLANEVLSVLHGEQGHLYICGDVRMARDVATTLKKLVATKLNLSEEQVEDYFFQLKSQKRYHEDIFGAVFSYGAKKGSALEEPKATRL
Protocol: The effect of xanthorrhizol on iNOS activity induced by LPS was measured. RAW264.7 macrophage cells were maintained in DMEM supplemented with penicillin-streptomycin and 10% FBS at 37° C., in 5% CO2 of humidified air. The cells in 10% FBS-DMEM without phenol red media were plated in 24-well plates (8×10^5/ml), and then incubated for 4 hr. The cells were replaced with new media, and incubated in the medium with 1 μg/ml of LPS and xanthorrhizol. After an additional 20 hr incubation, the media were removed and analyzed for nitrite accumulation as an indicator of NO production by the Griess reaction. 150 μl of Griess reagent were added to 100 μl of each supernatant from LPS and/or xanthorrhizol treated cells in triplicate. The plates were incubated for 10 min, and were read at 570 nm against a standard curve of NaNO2. The percentage inhibition was expressed as [1−(NO level of sample/NO level of vehicle treated−control)]×100.

HL-60 cells [1] = test: Apoptosis morphology in HL-60 cells (Hoechst 33258 staining, fluorescence microscopy); type: cell-based, Human; details: xanthorrhizol 40 μM, 24 hr
Protocol: Human promyelocytic leukemia (HL-60) cells were maintained at 37° C. in a humidified atmosphere of 95% air and 5% CO2 in RPMI 1640 supplemented with 10% (v/v) heat-inactivated fetal bovine serum (FBS). HL-60 cells were cultured in 6-well plate in RPMI 1640 medium containing 10% FBS in the absence or presence of the methanolic extract of Curcuma xanthorrhiza (15 μg/ml) and xanthorrhizol (40 μM) and centrifuged after 24 hr. 4% neutral buffered formaline was added to the cell and the mixture was transferred to slides, which were left at room temperature for dryness. The fixed cells were washed in PBS, air-dried and stained with DNA-specific fluorochrome Hoechest 33258 for 1 min. The adhered cells were washed with PBS, air dried, and mounted with 50% glycerol. The slides were observed by fluorescence microscopy.

HL-60 cells [2] = test: Flow cytometric cell cycle analysis of HL-60 cells (sub-G1 phase); type: cell-based, Human; details: 24 hours, control 20%
Protocol: The effect of xanthorrhizol on cell cycle was examined by flow cytometric analysis. HL-60 cells were cultured in serum-free RPMI 1640 medium for 48 hr to stop cell cycle at GO phase. The medium was exchanged to 10% FBS-RPMI 1640 media with 0, 20, 60 μM of xanthorrhizol, respectively. 24 hours later, the cells obtained after centrifugation were fixed in 70% ethanol at −20° C. overnight. The cells were washed twice again with PBS, and incubated with 100 U/ml of Rnase at 37° C. for 1 hr. The cell pellet was resuspended in propidium iodide solution after washing twice with PBS. The cells were analyzed by flow cytometry and the result was represented at FIG. 11.

SMILES: CC(C)=CCC[C@@H](C)c1ccc(C)c(O)c1 [xanthorrhizol]
- IC50 (iNOS; read-out: IC50, LPS-induced iNOS activity (NO) (converted)): 4.63 µM
- inhibition at 10 µg/mL (iNOS; RAW264.7, 10 μg/ml, read-out: percentage inhibition of LPS-induced nitric oxide production (iNOS activity)): ≥ 99%
- morphological characteristics of apoptosis (HL-60 cells [1]): distinct chromatin condensation and nuclear fragmentation
- proportion of cells in sub-G1 phase (apoptosis peak) (HL-60 cells [2]; 20 μM): 36%
- proportion of cells in sub-G1 phase (apoptosis peak) (HL-60 cells [2]; 60 μM): 76%
